Key:
[1] = particle size and BET specific surface area of lovastatin crystals; format: physicochemical; conditions: for d(0.1) / d(0.5) / d(0.9): particle size; for d(0.9): 90% (volume) of particles below; for Spec. Pov.: specific surface area, BET method
[2] = dissolution of lovastatin samples of varying particle size in water (Table I); format: physicochemical; conditions: suspension in 0.1% Tween 80 diluted 100 times
Text: At first we have prepared three samples of lovastatin* with varying particle size and compared dissolution** of those samples in water (Table I).

[3] = room temperature; cited from earlier work
[4] = oral, cited from earlier work

Row | Compound | d(0.1) [1] | d(0.5) [1] | d(0.9) [1] | Spec. Pov. [1] | concentration of dissolved lovastatin ([2]; time 0 min) | concentration of dissolved lovastatin ([2]; time 1 min) | concentration of dissolved lovastatin ([2]; time 3 min) | concentration of dissolved lovastatin ([2]; time 5 min) | concentration of dissolved lovastatin ([2]; time 10 min) | concentration of dissolved lovastatin ([2]; time 30 min) | concentration of dissolved lovastatin ([2]; time 50 min) | volume of water required to dissolve 20 mg [3] | time to peak concentration in blood of active form ([4]; post-dose) | share of total dose that crosses the intestinal membrane [4]
1 | CC[C@H](C)C(=O)O[C@H]1C[C@@H](C)C=C2C=C[C@H](C)[C@H](CC[C@@H]3C[C@@H](O)CC(=O)O3)[C@H]21 [B, lovastatin] | 1.4 μm | 7.9 μm | 31 μm | 2.2 m^2/g | 0 ng/mL | 500 ng/mL | 680 ng/mL | 710 ng/mL | 780 ng/mL | 870 ng/mL | 950 ng/mL | – | – | –
2 | CC[C@H](C)C(=O)O[C@H]1C[C@@H](C)C=C2C=C[C@H](C)[C@H](CC[C@@H]3C[C@@H](O)CC(=O)O3)[C@H]21 [lovastatin] | – | – | – | – | – | – | – | – | – | – | – | about 15 litres | 2.8 h | 31%
3 | CC[C@H](C)C(=O)O[C@H]1C[C@@H](C)C=C2C=C[C@H](C)[C@H](CC[C@@H]3C[C@@H](O)CC(=O)O3)[C@H]21 [Example 5, lovastatin] | – | – | 77 μm | 1.3 m^2/g | – | – | – | – | – | – | – | – | – | –
4 | CC[C@H](C)C(=O)O[C@H]1C[C@@H](C)C=C2C=C[C@H](C)[C@H](CC[C@@H]3C[C@@H](O)CC(=O)O3)[C@H]21 [A, lovastatin] | 1.6 μm | 6 μm | 22 μm | 3.3 m^2/g | 0 ng/mL | 650 ng/mL | 770 ng/mL | 780 ng/mL | 810 ng/mL | 880 ng/mL | 900 ng/mL | – | – | –
5 | CC[C@H](C)C(=O)O[C@H]1C[C@@H](C)C=C2C=C[C@H](C)[C@H](CC[C@@H]3C[C@@H](O)CC(=O)O3)[C@H]21 [Example 4, lovastatin] | – | – | 163 μm | – | – | – | – | – | – | – | – | – | – | –
6 | CC[C@H](C)C(=O)O[C@H]1C[C@@H](C)C=C2C=C[C@H](C)[C@H](CC[C@@H]3C[C@@H](O)CC(=O)O3)[C@H]21 [Example 6, lovastatin] | – | – | 22 μm | – | – | – | – | – | – | – | – | – | – | –
7 | CC[C@H](C)C(=O)O[C@H]1C[C@@H](C)C=C2C=C[C@H](C)[C@H](CC[C@@H]3C[C@@H](O)CC(=O)O3)[C@H]21 [C, lovastatin] | 17 μm | 54 μm | 163 μm | 0.7 m^2/g | 0 ng/mL | 250 ng/mL | 300 ng/mL | 400 ng/mL | 560 ng/mL | 820 ng/mL | 940 ng/mL | – | – | –

From patent publication US6984399B2 (Lek Pharmaceuticals d.d., priority 1999, dated 2006)
